Results reported in ChEMBL document CHEMBL1201862, “PubChem BioAssay data set” (2004).
Activity calls are given as the source filed them.

Tests used:
[1] = biological target: T1, Coagulation factor XII (Homo sapiens, UniProt P00748); experiment: activated coagulation factor XII inhibitor potency, concentration-effect curve, cell-free (AID 716); assay type: functional
T1 sequence (P00748 whole entry): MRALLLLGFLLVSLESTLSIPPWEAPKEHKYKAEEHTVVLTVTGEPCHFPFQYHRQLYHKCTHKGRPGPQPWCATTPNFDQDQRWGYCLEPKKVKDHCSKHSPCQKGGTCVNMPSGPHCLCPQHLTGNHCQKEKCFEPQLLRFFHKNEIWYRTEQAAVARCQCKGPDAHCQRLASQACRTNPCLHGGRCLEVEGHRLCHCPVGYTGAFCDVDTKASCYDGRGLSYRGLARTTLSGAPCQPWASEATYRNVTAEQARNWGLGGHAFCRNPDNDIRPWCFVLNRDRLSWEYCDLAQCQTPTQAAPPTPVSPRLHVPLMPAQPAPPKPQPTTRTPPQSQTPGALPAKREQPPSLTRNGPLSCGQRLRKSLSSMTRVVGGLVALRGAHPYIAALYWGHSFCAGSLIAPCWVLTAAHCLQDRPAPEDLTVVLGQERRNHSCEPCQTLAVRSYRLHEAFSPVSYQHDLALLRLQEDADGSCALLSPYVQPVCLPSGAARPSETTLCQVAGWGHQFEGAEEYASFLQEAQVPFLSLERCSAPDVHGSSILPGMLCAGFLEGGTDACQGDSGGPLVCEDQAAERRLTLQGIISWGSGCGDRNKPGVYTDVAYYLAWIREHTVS

[2] = biological target: Mucolipin-3 (Homo sapiens, UniProt Q8TDD5); experiment: Dose response cell-based high-throughput screening assay for agonists of the transient receptor potential channel ML3 (TRPML3). [Related pubchem assays: 1526, 1424, 1448 ]; assay type: functional
[3] = biological target: Ion channel NompC (Danio rerio, UniProt Q7T1G6); experiment: Fluorescence counterscreen assay for TRPML3 agonists: dose response cell-based high-throughput screening assay to identify agonists of the transient receptor potential channel N1 (TRPN1). [Related pubchem assays: 1526, 1424, 1448 ]; assay type: functional
[4] = biological target: T2, Sphingosine 1-phosphate receptor 4 (Homo sapiens, UniProt O95977); experiment: Late-stage fluorescence dose response cell-based assay to identify agonists of the Sphingosine 1-Phosphate Receptor 4 (S1P4): purchased compounds EC50. [Related pubchem assays (depositor defined):AID1509, AID1523, AID1563, AID1686, AID1701, AID1801]; assay type: functional
T2 sequence (O95977 whole entry): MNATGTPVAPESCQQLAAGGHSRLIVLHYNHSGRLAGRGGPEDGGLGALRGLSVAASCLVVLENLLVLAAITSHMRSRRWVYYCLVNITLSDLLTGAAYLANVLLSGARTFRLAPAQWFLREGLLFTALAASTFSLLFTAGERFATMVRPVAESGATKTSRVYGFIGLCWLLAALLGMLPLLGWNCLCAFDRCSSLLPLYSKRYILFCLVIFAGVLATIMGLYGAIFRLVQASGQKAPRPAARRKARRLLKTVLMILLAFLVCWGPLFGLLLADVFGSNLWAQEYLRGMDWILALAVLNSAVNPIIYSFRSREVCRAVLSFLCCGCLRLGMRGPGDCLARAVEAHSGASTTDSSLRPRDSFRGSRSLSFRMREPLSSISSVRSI

[5] = biological target: Hexokinase (Trypanosoma brucei, UniProt Q38C41); experiment: Confirmation assay for inhibitors of Trypanosoma brucei hexokinase 1-Analogue-first series. [Related pubchem assays (depositor defined):AID1430, AID1632, AID2516, AID2560, AID2579, AID2600, AID449725, AID492951]; assay type: functional
[6] = biological target: Bcl-2-like protein 10 (Homo sapiens, UniProt Q9HD36); experiment: Bcl-B/TR3 peptide binding disruption – biochemical, fluorescence polarization, FITC-TR3 peptide, selectivity assay for Bfl-1 inhibitor project, primary screen (AID 748);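 further: fluorescence polarization from a fluorescein-labelled TR3 peptide binding purified Bcl-B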
[7] = biological target: T3, Induced myeloid leukemia cell differentiation protein Mcl-1 (Homo sapiens, UniProt Q07820); experiment: blockers of MCL1 binding to BIM peptide – biochemical, fluorescence polarization, BIM-BH3 peptide, 1536-well, dose response (AID 2217)
[8] = biological target: Estrogen receptor beta (Homo sapiens, UniProt Q92731); experiment: blockers of SRC-3 recruitment to ERβ – biochemical, ELISA, streptavidin-HRP readout, orthogonal assay, confirmation (AID 1060)
[9] = biological target: Bcl-2-like protein 1 (Homo sapiens, UniProt Q07817); experiment: blockers of BCLXL peptide binding – biochemical, fluorescence polarization, 1536-well, selectivity assay for MCL1 inhibitor project, dose response (AID 2218)
[10] = biological target: Protein Tat (Human immunodeficiency virus type 1 group M subtype B (isolate HXB2)(HIV-1), UniProt P04608); assay type: functional;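 further: tat binding to TAR RNA read out by fluorescence polarization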
[11] = viability loss in THP-1 monocytes – THP-1 cells, cytotoxicity control for Vif-APOBEC3G degradation inhibitor project, dose response (AID 1117359); assay type: functional; conditions: THP-1
[12] = biological target: Glyceraldehyde-3-phosphate dehydrogenase (Homo sapiens, UniProt P04406)
[13] = biological target: T4, Alkaline phosphatase, tissue-nonspecific isozyme (Homo sapiens, UniProt P05186); experiment: potency against alkaline phosphatase TNAP – biochemical, luminescent, dose response, SAR follow-up (AID 1056)
T4 sequence (P05186 whole entry): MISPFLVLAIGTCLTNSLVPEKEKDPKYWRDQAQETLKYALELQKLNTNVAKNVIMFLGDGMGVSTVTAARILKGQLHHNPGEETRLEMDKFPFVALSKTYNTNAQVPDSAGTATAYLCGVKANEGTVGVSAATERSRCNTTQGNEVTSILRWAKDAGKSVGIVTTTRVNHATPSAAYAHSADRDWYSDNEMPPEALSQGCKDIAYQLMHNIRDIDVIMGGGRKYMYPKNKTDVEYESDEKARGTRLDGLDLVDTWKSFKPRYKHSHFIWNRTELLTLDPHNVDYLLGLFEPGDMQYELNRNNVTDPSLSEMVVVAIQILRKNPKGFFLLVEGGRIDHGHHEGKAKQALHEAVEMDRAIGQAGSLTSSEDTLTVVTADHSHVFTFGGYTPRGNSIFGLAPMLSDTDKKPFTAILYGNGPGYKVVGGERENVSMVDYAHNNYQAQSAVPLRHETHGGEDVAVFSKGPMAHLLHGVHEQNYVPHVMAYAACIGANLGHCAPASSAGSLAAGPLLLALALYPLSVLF

[14] = biological target: T5, SUMO-activating enzyme (Homo sapiens, UniProt Q9UBT2); experiment: blockers of UBC9-mediated SUMO conjugation – biochemical, AlphaScreen, SUMOylation inhibitor project, confirmation (AID 2018); assay type: functional
[15] = biological target: T5, SUMO-activating enzyme; experiment: blockers of SAE1/SAE2–UBC9 SUMO transfer – biochemical, HTRF, uHTS, primary screen (AID 2006); assay type: protein-complex assay
[16] = biological target: T6, Bifunctional protein GlmU (Mycobacterium tuberculosis, UniProt P9WMN3); experiment: Inhibitors of Mycobacterial Glucosamine-1-phosphate acetyl transferase (GlmU). Secondary screen.; set-up: species or system Mycobacterium tuberculosis H37Rv
T6 sequence (P9WMN3 whole entry): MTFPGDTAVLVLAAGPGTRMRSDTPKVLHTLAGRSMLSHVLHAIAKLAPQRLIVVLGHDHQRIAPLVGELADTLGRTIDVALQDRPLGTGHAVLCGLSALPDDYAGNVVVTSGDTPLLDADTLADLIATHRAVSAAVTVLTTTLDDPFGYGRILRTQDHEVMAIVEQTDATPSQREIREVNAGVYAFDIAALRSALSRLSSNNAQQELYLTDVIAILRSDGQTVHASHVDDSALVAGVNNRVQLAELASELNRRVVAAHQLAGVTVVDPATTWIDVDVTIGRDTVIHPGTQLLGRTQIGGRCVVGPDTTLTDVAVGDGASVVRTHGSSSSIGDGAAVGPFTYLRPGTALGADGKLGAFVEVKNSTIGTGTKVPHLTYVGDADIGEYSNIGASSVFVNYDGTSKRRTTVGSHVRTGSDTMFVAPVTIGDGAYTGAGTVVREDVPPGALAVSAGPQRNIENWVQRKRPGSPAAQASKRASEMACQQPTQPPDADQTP

[17] = biological target: T3, Induced myeloid leukemia cell differentiation protein Mcl-1; assay type: functional
[18] = test system: INS1; experiment: INS-1E survival protection against cytokine death – cell-based, luminescence, retest, dose response (AID 449756); assay type: functional; conditions: Rattus norvegicus;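 further: cell death triggered by IL-1 beta plus TNF-alpha plus IFN-gamma mixture; protective hits raise ATP signal compared with cytokine alone wells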
[19] = biological target: Ras and Rab interactor 1/Tyrosine-protein kinase ABL1 (Homo sapiens, UniProt P00519+Q13671); assay type: functional;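 further: biochemical TR-FRET dose-response test measuring inhibition of binding between Rin1 and Abl proteins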
[20] = biological target: T7, Small ubiquitin-related modifier 1 (Homo sapiens, UniProt P63165); experiment: SUMO1 protein interaction blockers, potency – biochemical, fluorescence polarization, uHTS hits, dose response (AID 624382); assay type: functional; conditions: read-out: IC50_Mean
[21] = biological target: T7, Small ubiquitin-related modifier 1; experiment: SUMO1 protein-protein binding blockers, potency – biochemical, FRET, dose response (AID 624383); assay type: functional; conditions: read-out: IC50_Mean

T3 sequence (Q07820 whole entry): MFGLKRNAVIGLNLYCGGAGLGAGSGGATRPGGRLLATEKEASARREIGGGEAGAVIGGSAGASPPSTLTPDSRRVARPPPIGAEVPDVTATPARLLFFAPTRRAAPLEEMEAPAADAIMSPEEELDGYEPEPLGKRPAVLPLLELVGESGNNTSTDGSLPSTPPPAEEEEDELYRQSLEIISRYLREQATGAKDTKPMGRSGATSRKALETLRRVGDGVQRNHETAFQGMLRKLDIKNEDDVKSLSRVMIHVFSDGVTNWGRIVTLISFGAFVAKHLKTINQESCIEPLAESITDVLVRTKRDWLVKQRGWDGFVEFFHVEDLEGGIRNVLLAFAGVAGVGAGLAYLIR
Bcl-2-like protein 1, sequence (Q07817 whole entry): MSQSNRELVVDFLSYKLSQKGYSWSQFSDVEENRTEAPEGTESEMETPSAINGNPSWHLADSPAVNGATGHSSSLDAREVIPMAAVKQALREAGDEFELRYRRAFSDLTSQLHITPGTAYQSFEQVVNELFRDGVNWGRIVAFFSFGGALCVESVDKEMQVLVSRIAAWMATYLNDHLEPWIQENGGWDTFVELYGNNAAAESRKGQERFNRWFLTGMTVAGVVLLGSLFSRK
T5 sequence (Q9UBE0 whole entry): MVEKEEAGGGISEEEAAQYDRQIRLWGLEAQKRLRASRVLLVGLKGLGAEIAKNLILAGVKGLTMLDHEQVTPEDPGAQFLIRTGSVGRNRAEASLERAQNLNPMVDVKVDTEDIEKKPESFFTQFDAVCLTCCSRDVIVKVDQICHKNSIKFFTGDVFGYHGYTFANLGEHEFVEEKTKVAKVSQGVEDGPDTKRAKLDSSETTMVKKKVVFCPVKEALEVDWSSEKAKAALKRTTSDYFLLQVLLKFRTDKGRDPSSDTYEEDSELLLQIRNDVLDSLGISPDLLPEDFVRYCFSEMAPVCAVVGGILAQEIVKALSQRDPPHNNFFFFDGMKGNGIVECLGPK
T5 sequence (Q9UBT2 whole entry): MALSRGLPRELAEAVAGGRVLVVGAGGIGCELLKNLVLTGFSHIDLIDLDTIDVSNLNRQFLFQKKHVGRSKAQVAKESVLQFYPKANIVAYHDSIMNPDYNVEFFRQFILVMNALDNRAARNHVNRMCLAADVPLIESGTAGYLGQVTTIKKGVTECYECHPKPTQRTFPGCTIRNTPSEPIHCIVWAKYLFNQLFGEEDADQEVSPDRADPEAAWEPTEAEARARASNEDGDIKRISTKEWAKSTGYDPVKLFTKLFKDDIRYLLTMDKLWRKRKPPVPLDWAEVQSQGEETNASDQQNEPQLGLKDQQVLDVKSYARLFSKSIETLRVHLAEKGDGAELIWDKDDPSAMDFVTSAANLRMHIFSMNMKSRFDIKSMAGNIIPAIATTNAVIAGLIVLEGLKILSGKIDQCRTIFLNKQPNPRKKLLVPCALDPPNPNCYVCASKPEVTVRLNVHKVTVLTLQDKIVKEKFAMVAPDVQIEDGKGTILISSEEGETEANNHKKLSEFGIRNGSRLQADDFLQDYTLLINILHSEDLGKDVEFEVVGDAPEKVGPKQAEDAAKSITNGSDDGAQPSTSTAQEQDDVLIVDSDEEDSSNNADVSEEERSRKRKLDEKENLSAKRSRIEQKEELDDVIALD
Hexokinase, sequence (Q38C41 whole entry): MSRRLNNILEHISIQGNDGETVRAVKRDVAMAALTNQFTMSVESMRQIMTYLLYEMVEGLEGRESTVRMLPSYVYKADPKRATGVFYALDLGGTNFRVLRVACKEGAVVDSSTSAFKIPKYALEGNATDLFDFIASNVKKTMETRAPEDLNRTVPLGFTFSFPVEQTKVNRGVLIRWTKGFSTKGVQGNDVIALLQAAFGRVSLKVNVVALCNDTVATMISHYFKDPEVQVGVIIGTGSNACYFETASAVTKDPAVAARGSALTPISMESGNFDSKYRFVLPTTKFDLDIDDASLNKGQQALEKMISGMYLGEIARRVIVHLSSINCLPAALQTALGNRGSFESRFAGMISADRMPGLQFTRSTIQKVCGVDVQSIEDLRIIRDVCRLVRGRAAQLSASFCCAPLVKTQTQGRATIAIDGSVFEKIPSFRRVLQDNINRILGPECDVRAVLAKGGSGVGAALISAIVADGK
T7 sequence (P63165 whole entry): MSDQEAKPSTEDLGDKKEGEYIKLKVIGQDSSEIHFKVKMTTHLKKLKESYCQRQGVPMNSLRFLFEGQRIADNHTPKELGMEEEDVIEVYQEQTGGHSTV
Glyceraldehyde-3-phosphate dehydrogenase, sequence (P04406 whole entry): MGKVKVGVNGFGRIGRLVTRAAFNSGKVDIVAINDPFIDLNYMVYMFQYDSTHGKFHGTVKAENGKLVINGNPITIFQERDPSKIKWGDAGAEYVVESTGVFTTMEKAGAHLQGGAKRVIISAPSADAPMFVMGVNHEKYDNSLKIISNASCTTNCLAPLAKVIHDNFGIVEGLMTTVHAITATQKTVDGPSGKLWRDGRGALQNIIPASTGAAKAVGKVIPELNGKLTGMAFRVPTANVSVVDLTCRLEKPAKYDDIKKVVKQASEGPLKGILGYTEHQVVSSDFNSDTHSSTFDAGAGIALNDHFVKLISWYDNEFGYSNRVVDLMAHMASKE
Bcl-2-like protein 10, sequence (Q9HD36 whole entry): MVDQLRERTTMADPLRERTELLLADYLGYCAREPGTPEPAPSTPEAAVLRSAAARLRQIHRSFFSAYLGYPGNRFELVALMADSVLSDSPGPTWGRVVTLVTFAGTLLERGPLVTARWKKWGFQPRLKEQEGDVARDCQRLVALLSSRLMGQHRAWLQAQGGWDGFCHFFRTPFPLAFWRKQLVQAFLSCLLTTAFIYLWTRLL
Estrogen receptor beta, sequence (Q92731 whole entry): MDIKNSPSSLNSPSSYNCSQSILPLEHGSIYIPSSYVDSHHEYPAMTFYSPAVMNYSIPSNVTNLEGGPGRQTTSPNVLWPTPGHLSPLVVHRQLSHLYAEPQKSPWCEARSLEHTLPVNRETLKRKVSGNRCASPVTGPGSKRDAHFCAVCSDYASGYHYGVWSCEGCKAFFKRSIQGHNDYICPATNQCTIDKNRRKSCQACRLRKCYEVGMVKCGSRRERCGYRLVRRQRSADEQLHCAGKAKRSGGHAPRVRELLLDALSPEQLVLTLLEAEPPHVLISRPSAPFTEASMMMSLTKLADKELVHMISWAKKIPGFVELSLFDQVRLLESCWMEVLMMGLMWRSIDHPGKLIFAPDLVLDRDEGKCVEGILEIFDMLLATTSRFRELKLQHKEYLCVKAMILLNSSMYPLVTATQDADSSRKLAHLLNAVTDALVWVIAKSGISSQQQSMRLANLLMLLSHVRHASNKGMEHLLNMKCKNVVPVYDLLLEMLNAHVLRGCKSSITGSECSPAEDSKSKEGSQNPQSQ
Mucolipin-3, sequence (Q8TDD5 whole entry): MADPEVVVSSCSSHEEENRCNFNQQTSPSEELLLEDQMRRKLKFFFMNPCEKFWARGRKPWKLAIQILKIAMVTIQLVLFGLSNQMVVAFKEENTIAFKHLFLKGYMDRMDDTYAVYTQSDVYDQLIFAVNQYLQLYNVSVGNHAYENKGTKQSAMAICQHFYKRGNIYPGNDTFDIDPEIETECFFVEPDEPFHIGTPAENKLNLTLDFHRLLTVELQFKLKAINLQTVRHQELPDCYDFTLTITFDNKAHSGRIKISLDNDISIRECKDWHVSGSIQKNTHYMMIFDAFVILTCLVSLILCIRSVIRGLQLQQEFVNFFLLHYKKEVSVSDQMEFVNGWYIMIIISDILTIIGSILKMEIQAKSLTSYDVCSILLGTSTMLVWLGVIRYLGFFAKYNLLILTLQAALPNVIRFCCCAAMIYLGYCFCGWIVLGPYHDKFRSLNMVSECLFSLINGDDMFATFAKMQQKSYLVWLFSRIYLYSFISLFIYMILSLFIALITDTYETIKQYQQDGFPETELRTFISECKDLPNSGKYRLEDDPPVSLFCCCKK
Protein Tat, sequence (P04608 whole entry): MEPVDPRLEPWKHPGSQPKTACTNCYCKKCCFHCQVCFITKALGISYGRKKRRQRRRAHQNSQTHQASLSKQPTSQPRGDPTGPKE

O=C(Nc1ccc(Cl)c(Cl)c1)N1CC=CCC1
IC50 [1]: > 50 µM (inactive)

Cc1ccc(S(=O)(=O)c2c(C)nn(C(C)(C)C)c2OC(=O)C(C)(C)C)cc1
EC50 [2]: 5.15 µM (active) | EC50 [3]: > 29.9 µM (not active)

Cc1ccc(OCc2cn3cc(Cl)ccc3n2)c([N+](=O)[O-])n1
EC50 [4]: > 50 µM (inactive)

Cc1ccc(OC(C)C(=O)Nc2ccc(Cl)cc2Cl)c([N+](=O)[O-])n1 (stereo not given)
EC50 [4]: > 50 µM (inactive)

CCCc1ccc(C(=O)Nc2cc(Cl)ccc2C(=O)O)cc1
IC50 [5]: 4.54 µM (active)

CC(=N)/C(C#N)=C(/O)CSc1nnc(NC(C)C)s1
IC50 [6]: 23.7 µM (active) | IC50 [7]: 16.3 µM (not active) | IC50 [8]: < 0.023 µM (not active) | IC50 [9]: > 109 µM (not active) | IC50 [10]: > 100 µM (active) | CC50 [11]: > 40 µM (active)

Cc1cc(=O)n(-c2ccccc2)s1
IC50 [5]: > 25 µM (inactive)

COc1ccc(OC)c(S(=O)(=O)Nc2ccc3ccccc3c2)c1
IC50 [12]: > 10 µM (inconclusive) | IC50 [13]: > 10 µM (inactive)

COC(=O)c1cc(O)cc(OC)c1Oc1cc(C)cc(O)c1C(=O)O [ASTERRIC ACID]
IC50 [14]: 7.42 µM (active) | IC50 [15]: 17.7 µM (active) | IC50 [7]: 5.48 µM (active) | IC50 [16]: 82.7 µM (active) | IC50 [9]: 54.2 µM (not active) | IC50 [17]: 2.42 µM (not active) | AC50 [18]: 8.13 µM (active) | IC50 [19]: 20.7 µM (inactive) | IC50 [20]: > 66.6 µM (inactive) | IC50 [21]: 8.12 µM (active)
